Results on ten compounds are retold here after US11179391B2, “Compound with kinase inhibitory activity and preparation method and use thereof” (priority 2017, dated 2021).

As usually defined, the IC50 is the concentration that inhibits the measured activity by half. The Cmax is the peak of the concentration-time curve. Broadly, the Tmax is the time from dosing to the highest level. For orientation: half-life means how long it takes for the measured level to halve.

Like-named read-outs stand apart in the source and are kept apart here.

Data set [1] relates to Human colorectal cancer Colo-205 cells. Kind of data set: Pharmacodynamic study on mouse Colo-205 model (subcutaneous xenograft). As to conditions: Colo-205 model, mesylate, 50 mg/kg PO × 28 days. The format is in vivo, BALB/c nude mice. From the text:
BALB/c nude mice, 6-8 weeks old, weighing 12-14 g, female, provided by Shanghai Lab Animal Research Center (Shanghai Xipuer-Beikai) with an animal certificate No: 2008001682093.
The experiment was started after 3-7 days in the experimental environment when the animals arrived. Animals were housed in IVC (independent air supply system) cages (Four animals per cage) in SPF grade experimental animal facilities. Each cage animal information card contained the number of animals in the cage, sex, strain, receiving date, dosing schedule, experiment number, group and start date of the experiment. All cages, bedding, and drinking water were sterilized before use and were updated twice a week.
4.3 Tumor Cell Inoculation Method
Human colorectal cancer Colo-205 cells (ATCC-CCL-222) were cultured in vitro in monolayer under the conditions of RPMI 1640 medium with 10% fetal bovine serum, 100 U/mL penicillin and 100 μg/mL streptomycin, and 37° C. 5% CO2 incubator. The passage was routinely digested with trypsin-EDTA twice a week. When the cell saturation was up to 80%-90% and reached the requirement, the cells were collected, counted and inoculated. 0.2 mL (5×10^6) Colo-205 cells were subcutaneously inoculated on the right back of each mouse, and mice were randomly grouped and dosed when the average tumor volume reached 163 mm^3.
4.14 mL of lactic acid was added to a large beaker containing 800 mL of deionized water, and the pH was adjusted to 4.0 with 5 N NaOH. Then the volume was fixed to 1,000 mL to obtain 50 mmol/L sodium lactate buffer.
The subcutaneous tumor volume of nude mice was measured 2-3 times a week, and the mice were weighed, and the data were recorded.
4.6 Analysis and Evaluation
Experimental evaluation index: the tumor growth inhibition rate TGI (%) or the relative tumor proliferation rate T/C (%) was used for evaluation, wherein T was the experimental group, and C was the vehicle group.

The next data set deals with CDK4/CycD3 (Homo sapiens, UniProt P11802). Put plainly: Determination of CDK activity (Caliper mobility shift, FAM-P8 peptide): CDK4. The settings on record: CDK4/CycD3; read-out: CDK4 enzymatic inhibitory activity (IC50). Type of data set: biochemical. In a few lines:
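GST-CDK4(1-303)/GST-CycD3(1-292) was preincubated with compound for 10 min at room temperature, then FAM-P8 peptide and ATP were added; the reaction ran at 28 °C and was stopped with EDTA-containing stop buffer. Peptide conversion was read by Caliper mobility shift. A 10-point dilution series was fitted for IC50.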

In the next data set the target is CDK6/cycD3 (Homo sapiens, UniProt Q00534). Kind of data set: Determination of CDK activity (Caliper mobility shift, FAM-P8 peptide): CDK6. The format is biochemical. The settings on record: CDK6/cycD3; read-out: CDK6 enzymatic inhibitory activity (IC50). In a few lines: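 GST-CDK6(1-326)/cycD3 with FAM-P8 peptide and ATP, after 10 min room-temperature enzyme–compound preincubation; reaction at 28 °C, then EDTA stop. Substrate conversion read by Caliper mobility shift; inhibition from no-compound and no-enzyme controls, IC50 fitted over 10-point dilution in DMSO.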

The target of the next data set is CDK1/CyclinB (Homo sapiens, UniProt P06493). Put plainly: Determination of CDK activity (Caliper mobility shift, FAM-P8 peptide): CDK1. Type of data set: biochemical. The settings on record: CDK1/CyclinB; read-out: CDK1 enzymatic inhibitory activity (IC50).
A further data set has as its target CDK2/CycA2 (Homo sapiens, UniProt P24941). Kind of data set: Determination of CDK activity (Caliper mobility shift, FAM-P8 peptide): CDK2. As to conditions: CDK2/CycA2; read-out: CDK2 enzymatic inhibitory activity (IC50). The format is biochemical.
In the next data set the target is CDK7/CyclinH/MAT1 (Homo sapiens, UniProt P50613). Kind of data set: Determination of CDK activity (Caliper mobility shift, FAM-P8 peptide): CDK7. The format is biochemical. As to conditions: CDK7/CyclinH/MAT1; read-out: CDK7 enzymatic inhibitory activity (IC50). In a few lines:
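His-CDK7/GST-MAT1/cyclin H preincubated with compound (10-point series) 10 min at room temperature, then reacted with FAM-P8 peptide plus ATP at 28 °C for a set time before stopping. Peptide conversion read by Caliper mobility shift; converted to % inhibition vs controls and IC50 fitted.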

In a further data set the target is CDK9/cyclinTl (Homo sapiens, UniProt P50750). Put plainly: Determination of CDK activity (Caliper mobility shift, FAM-P8 peptide): CDK9. Type of data set: biochemical. As to conditions: CDK9/cyclinTl.
A short description of data set [2]: Pharmacokinetic study in rats. Type of data set: in vivo, Sprague-Dawley rats. As to conditions: for F / Cmax / Tmax / clearance / half-life / AUC(0-t): male Sprague-Dawley rats; for F: iv 2 mg/kg and oral 5 mg/kg; for Cmax / Tmax / clearance / half-life / AUC(0-t): rat, plasma, study dosed iv 2 mg/kg and oral 5 mg/kg, route of this parameter not given; for AUC(0-t): read-out: AUC0-24 h. Here is the method:
Healthy adult Sprague-Dawley rats, male, 7-10 weeks old, weighing 240-270 g, provided by Beijing Vital River Laboratory Animal Technology Co., Ltd., with an animal certificate number of 1140070278736.
Test compounds of the invention: example 17, 33, 40, and 57.
Intravenous administration solvent system of compounds: 10% (V/V) NMP and 90% (20% (V/V)) SBE-β-CD in 16.667 mM PBS with a concentration of 1.0 mg/mL.
Oral administration solvent system of compounds: pure water system containing 0.1% hydroxyethyl cellulose and 0.5% Tween-80, with a concentration of 1 mg/mL.
Intravenous administration: 3 male Sprague-Dawley rats of each test compound were injected intravenously after fasting overnight, with a dose of 2 mg/kg, and the dosing volume was 2 mL/kg. […]
Before the administration, and after administration of 0.0833 (iv), 0.25, 0.5, 1, 2, 4, 8, 12, and 24 h, the jugular vein puncture (approximately 0.15 mL per time point) of each animal was performed by collecting blood from polypropylene tubes. All blood samples were transferred to pre-cooled EDTA-K2 test tubes or pre-cooled plastic microcentrifuge tubes containing 3 μL of 0.5 M EDTA-K2 as anticoagulant and placed on wet ice until centrifugation. Each collected blood was centrifuged at 4° C. for 15 minutes, and plasma was collected. All plasma would be stored in a freezer at about −80° C. until LCMS/MS detection.

The mark [3] stands for this setting: read-out: CDK9 enzymatic inhibitory activity (IC50).
The mark [4] stands for this setting: rat plasma, at the dose of 10 mg/kg.
[5] abbreviates: CDK9 enzymatic inhibitory activity (IC50).

Sequence of CDK7/CyclinH/MAT1 (P50613 whole entry): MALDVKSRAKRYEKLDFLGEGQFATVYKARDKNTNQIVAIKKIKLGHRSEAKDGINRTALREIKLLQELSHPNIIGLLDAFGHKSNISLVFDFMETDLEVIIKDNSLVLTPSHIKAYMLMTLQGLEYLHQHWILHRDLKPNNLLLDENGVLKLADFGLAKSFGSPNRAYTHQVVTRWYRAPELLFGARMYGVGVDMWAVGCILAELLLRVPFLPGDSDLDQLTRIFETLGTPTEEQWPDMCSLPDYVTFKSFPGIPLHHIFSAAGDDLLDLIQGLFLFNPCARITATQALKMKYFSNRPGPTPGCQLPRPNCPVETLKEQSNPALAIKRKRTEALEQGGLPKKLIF
Sequence of CDK7/CyclinH/MAT1 (P51946 whole entry partner): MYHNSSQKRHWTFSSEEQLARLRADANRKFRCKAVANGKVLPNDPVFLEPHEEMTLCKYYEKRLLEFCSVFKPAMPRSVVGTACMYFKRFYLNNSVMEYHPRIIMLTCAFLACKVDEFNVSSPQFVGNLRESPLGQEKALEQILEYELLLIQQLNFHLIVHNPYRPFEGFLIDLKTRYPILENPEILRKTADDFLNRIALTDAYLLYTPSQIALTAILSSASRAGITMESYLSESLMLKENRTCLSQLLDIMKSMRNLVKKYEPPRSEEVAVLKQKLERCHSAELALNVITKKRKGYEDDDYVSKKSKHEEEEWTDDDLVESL
Sequence of CDK7/CyclinH/MAT1 (P51948 whole entry partner): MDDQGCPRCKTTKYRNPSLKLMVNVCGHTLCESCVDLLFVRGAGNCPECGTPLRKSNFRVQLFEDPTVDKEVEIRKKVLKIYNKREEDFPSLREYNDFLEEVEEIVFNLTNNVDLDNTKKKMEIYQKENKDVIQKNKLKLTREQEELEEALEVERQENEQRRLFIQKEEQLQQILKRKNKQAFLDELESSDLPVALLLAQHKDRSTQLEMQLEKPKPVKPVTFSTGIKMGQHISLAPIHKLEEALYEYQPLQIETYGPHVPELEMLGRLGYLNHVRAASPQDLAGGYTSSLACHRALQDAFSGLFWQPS
Sequence of CDK4/CycD3 (P11802 whole entry): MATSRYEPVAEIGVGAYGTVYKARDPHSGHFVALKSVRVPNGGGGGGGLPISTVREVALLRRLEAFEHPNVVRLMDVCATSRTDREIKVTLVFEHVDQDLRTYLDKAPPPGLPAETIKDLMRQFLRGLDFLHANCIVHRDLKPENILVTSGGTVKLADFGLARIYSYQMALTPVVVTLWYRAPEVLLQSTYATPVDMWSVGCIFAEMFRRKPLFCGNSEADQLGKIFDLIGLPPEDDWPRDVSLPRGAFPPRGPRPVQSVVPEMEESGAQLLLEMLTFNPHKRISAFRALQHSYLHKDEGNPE
Sequence of CDK4/CycD3 (P30281 whole entry partner): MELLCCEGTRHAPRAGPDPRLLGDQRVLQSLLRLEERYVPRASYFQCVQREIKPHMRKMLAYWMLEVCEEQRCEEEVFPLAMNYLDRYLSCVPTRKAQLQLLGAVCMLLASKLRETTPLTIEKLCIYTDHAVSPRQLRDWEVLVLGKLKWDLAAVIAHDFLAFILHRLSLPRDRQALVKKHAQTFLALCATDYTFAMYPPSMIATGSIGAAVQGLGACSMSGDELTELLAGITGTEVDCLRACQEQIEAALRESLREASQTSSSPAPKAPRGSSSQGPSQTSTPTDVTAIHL
Sequence of CDK1/CyclinB (P06493 whole entry): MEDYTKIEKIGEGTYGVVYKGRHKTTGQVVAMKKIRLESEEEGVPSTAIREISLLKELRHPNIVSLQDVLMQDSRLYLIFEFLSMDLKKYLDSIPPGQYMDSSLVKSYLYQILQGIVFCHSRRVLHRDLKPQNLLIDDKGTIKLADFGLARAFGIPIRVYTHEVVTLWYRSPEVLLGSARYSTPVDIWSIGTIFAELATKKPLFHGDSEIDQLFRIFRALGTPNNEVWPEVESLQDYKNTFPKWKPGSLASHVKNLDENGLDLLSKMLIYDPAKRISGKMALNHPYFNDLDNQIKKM
Sequence of CDK1/CyclinB (P14635 whole entry partner): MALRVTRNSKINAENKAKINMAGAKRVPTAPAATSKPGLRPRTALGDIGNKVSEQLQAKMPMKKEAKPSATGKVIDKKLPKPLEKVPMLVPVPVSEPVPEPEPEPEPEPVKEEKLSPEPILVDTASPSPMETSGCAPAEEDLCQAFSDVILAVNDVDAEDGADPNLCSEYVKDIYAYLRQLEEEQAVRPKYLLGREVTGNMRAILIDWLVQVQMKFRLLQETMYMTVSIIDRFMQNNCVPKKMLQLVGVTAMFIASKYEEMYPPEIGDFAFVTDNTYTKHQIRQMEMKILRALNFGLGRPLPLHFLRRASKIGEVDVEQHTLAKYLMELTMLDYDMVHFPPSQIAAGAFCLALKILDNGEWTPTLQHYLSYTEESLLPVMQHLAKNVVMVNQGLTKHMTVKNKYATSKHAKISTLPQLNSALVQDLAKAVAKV
Sequence of CDK9/cyclinTl (P50750 whole entry): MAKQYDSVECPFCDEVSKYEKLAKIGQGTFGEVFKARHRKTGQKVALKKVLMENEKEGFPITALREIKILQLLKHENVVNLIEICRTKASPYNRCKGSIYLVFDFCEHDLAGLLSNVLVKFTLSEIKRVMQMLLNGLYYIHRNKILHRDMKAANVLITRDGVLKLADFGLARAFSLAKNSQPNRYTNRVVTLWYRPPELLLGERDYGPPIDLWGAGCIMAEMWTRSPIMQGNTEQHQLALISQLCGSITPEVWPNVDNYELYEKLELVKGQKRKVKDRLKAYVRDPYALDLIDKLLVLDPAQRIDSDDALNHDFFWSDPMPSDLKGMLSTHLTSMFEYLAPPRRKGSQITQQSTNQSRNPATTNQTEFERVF
Sequence of CDK9/cyclinTl (O60563 whole entry partner): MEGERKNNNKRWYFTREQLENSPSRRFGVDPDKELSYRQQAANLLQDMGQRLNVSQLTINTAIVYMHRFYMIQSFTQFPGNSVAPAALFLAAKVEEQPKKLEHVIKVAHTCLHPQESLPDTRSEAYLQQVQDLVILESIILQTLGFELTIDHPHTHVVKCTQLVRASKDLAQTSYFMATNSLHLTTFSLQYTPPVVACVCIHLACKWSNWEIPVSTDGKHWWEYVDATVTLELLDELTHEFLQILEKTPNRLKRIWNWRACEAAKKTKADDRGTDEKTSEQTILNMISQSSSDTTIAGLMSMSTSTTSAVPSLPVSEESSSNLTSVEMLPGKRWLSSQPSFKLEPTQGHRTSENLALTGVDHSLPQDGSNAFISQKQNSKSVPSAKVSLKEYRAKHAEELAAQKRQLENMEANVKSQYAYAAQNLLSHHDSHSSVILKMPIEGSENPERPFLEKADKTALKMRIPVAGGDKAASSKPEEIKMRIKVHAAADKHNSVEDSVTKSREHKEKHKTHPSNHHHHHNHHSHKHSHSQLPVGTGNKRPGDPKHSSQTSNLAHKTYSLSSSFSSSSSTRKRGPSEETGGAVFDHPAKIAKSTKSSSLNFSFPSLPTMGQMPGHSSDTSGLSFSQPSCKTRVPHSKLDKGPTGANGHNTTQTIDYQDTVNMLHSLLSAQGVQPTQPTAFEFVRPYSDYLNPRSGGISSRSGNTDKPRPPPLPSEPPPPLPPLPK
Sequence of CDK6/cycD3 (Q00534 whole entry): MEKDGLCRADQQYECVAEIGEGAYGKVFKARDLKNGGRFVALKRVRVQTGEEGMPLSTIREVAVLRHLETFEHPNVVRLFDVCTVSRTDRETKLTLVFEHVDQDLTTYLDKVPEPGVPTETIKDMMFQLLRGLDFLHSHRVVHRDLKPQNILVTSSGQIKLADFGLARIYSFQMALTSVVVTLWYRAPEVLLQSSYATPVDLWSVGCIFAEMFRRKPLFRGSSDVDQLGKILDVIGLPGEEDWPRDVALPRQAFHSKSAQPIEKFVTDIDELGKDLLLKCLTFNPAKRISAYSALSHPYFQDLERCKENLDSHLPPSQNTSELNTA
Sequence of CDK6/cycD3 (P30281 whole entry partner): as the sequence (P30281 whole entry partner) above

With `CCN1CCN(Cc2ccc(Nc3ncc(F)c(-c4cc(F)c5nc(C)n(C(C)C)c5c4)n3)nc2)CC1` [Abemaciclib, reference compound], in data set [1] (baseline at start of dosing), the “Tumor volume (day 0)” value was determined as 198 mm^3. The “Tumor volume (day 28)” value in data set [1] turned out to be 749 mm^3. For the same compound, the “TGI tumor growth inhibition rate” value in data set [1] (day 28) worked out at 74.5%.
On to `CCN1CCC(C(O)c2ccc(Nc3ncc(F)c(-c4cc(F)c5nc(C)n(C(C)C)c5c4)n3)nc2)CC1` (single isomer, unassigned) [Example 40, (R or S)-(1-ethylpiperidin-4-yl)(6-((5-fluoro-4-(4-fluoro-1-isopropyl-2-methyl-1H-benzo [d]imidazol-6-yl)pyrimidin-2-yl)amino)pyridin-3-yl) methanol], for which, on CDK4/CycD3, the IC50 was under 0.1 µM. Besides, the 50% inhibitory concentration (IC50) on CDK6/cycD3 was under 0.1 µM. On CDK1/CyclinB, the IC50 is under 0.1 µM. In addition, at CDK2/CycA2, the IC50 was under 0.1 µM. Also, the IC50 at CDK7/CyclinH/MAT1 is 0.5 to 1 µM. For the same compound, the IC50 at CDK9/cyclinTl (setting [3]) was under 0.1 µM. In data set [2], the F is 13.3%, the Cmax came out at 12.9 ng/mL, the time to peak (Tmax) was found to be 4 h and the clearance worked out at 72.8 mL/min/kg. Besides, in data set [2], the half-life was 11.9 h and the AUC(0-t) was determined as 132 ng·h/mL.
Turning to `C=C(c1ccc(Nc2ncc(F)c(-c3cc(F)c4nc(C)n(C(C)C)c4c3)n2)nc1)C1CCN(CC)CC1` [Example 33, N-(5-(1-(1-ethylpiperidin-4-yl)vinyl)pyridin-2-yl)-5-fluoro-4-(4-fluoro-1-isopropyl-2-methyl-1H-benzo[d]imidazol-6-yl) pyrimidin-2-amine], the IC50 on CDK4/CycD3 is under 0.1 µM. For the same compound, the IC50 on CDK6/cycD3 was under 0.1 µM. The half-maximal inhibitory concentration (IC50) on CDK1/CyclinB was 0.1 to 0.5 µM. On CDK2/CycA2, the concentration for half-maximal inhibition (IC50) is under 0.1 µM. Further, at CDK7/CyclinH/MAT1, the IC50 fell in the range of 1 to 10 µM. In addition, the IC50 at CDK9/cyclinTl (setting [3]) was under 0.1 µM. Moreover, in data set [2], the F amounted to 43.7%, the highest level (Cmax) was 161 ng/mL, the Tmax stood at 8 h and the clearance worked out at 12.1 mL/min/kg. For the same compound, in data set [2], the half-life is 8.19 h and the AUC(0-t) stood at 2570 ng·h/mL. Further, in data set [2] (setting [4]), the “clearance in rat plasma (in words)” value was “lower clearance”, the “half-life in rat plasma (in words)” value is “longer half-life” and the “level of exposure at 24 h in rat plasma (in words)” value was “high level of exposure”.
As to `Cc1nc2c(F)cc(-c3nc(Nc4ccc([C@H](C)C5CCN(CC(F)(F)F)CC5)cn4)ncc3F)cc2n1C(C)C` [Example 85], the IC50 on CDK4/CycD3 was under 0.1 µM; at CDK6/cycD3, under 0.1 µM; on CDK1/CyclinB, 0.1 to 0.5 µM; on CDK2/CycA2 it was under 0.1 µM; at CDK7/CyclinH/MAT1, 1 to 10 µM; at CDK9/cyclinTl (setting [3]), 0.1 to 0.5 µM.
With `CCN1CCC(C(OC(C)=O)c2ccc(Nc3ncc(F)c(-c4cc(F)c5nc(C)n(C(C)C)c5c4)n3)nc2)CC1` (single isomer, unassigned) [Example 71, (R or S)-(1-ethylpiperidin-4-yl) (6-((5-fluoro-4-(4-fluoro-1-isopropyl-2-methyl-1H-benzo[d]imidazol-6-yl)pyrimidin-2-yl)amino)pyridin-3-yl) methyl acetate], the IC50 is under 0.1 µM on CDK4/CycD3; under 0.1 µM on CDK6/cycD3; 0.1 to 0.5 µM at CDK1/CyclinB; under 0.1 µM on CDK2/CycA2; 1 to 10 µM on CDK7/CyclinH/MAT1; 0.1 to 0.5 µM at CDK9/cyclinTl (setting [3]).
Regarding `Cc1nc2c(F)cc(-c3nc(Nc4ccc(C=C5CCN(C)CC5)cn4)ncc3F)cc2n1C(C)C` [Example 60], the IC50 at CDK4/CycD3 is under 0.1 µM; at CDK6/cycD3, 0.1 to 0.5 µM; at CDK1/CyclinB it was 0.5 to 1 µM; on CDK2/CycA2, 0.1 to 0.5 µM; at CDK7/CyclinH/MAT1, 1 to 10 µM; on CDK9/cyclinTl (setting [3]), 0.1 to 0.5 µM.
In the case of `CC[C@@H](c1ccc(Nc2ncc(F)c(-c3cc(F)c4nc(C)n(C(C)C)c4c3)n2)nc1)N1CCN(C)CC1` [Example 6], the IC50 is under 0.1 µM on CDK4/CycD3; 0.1 to 0.5 µM at CDK6/cycD3; 10 to 100 µM on CDK1/CyclinB; 1 to 10 µM on CDK2/CycA2; 1 to 10 µM at CDK7/CyclinH/MAT1; 1 to 10 µM at CDK9/cyclinTl (setting [5]).
For the compound `COCCCN1CCC([C@@H](C)c2ccc(Nc3ncc(F)c(-c4cc(F)c5nc(C)n(C(C)C)c5c4)n3)nc2)CC1` [Example 81], the IC50 is under 0.1 µM at CDK4/CycD3; under 0.1 µM on CDK6/cycD3; 0.1 to 0.5 µM at CDK1/CyclinB; under 0.1 µM at CDK2/CycA2; 1 to 10 µM on CDK7/CyclinH/MAT1; 0.1 to 0.5 µM at CDK9/cyclinTl (setting [3]).
`CC[C@H](c1ccc(Nc2ncc(F)c(-c3cc(F)c4nc(C)n(C(C)C)c4c3)n2)nc1)N1CCN(C)CC1` [Example 7]: the IC50 was under 0.1 µM at CDK4/CycD3; 1 to 10 µM at CDK6/cycD3; 10 to 100 µM on CDK1/CyclinB; 10 to 100 µM at CDK2/CycA2; 1 to 10 µM on CDK7/CyclinH/MAT1; 10 to 100 µM at CDK9/cyclinTl (setting [5]).
For the compound `C=C(c1ccc(Nc2ncc(F)c(-c3cc(F)c4nc(C)n(C(C)C)c4c3)n2)nc1)C1CCN(C)CC1` [Example 35], the IC50 was under 0.1 µM on CDK4/CycD3; 0.1 to 0.5 µM at CDK6/cycD3; 0.1 to 0.5 µM at CDK1/CyclinB; under 0.1 µM at CDK2/CycA2; 1 to 10 µM on CDK7/CyclinH/MAT1; under 0.1 µM on CDK9/cyclinTl (setting [3]).
